How the values were obtained:
cloned human S1P1 = target: T1, cloned human S1P1 (Homo sapiens, UniProt P21453); experiment: In-vitro affinity, EC50 for cloned human S1P1; format: biochemical
T1 construct: expressed in transfected cells

cloned human S1P5 = target: T2, cloned human S1P5 (Homo sapiens, UniProt Q9H228); experiment: In-vitro affinity, EC50 for cloned human S1P5; format: biochemical
T2 construct: expressed in transfected cells

S1P1 = S1P1 (Homo sapiens, UniProt P21453); experiment: EC50 for S1P1; format: biochemical; conditions: as quoted in Example 3.1
S1P5 = S1P5 (Homo sapiens, UniProt Q9H228); experiment: EC50 for S1P5; format: biochemical; conditions: as quoted in Example 3.1
[1] = tested on: PLP139-151 induced experimental autoimmune encephalomyelitis (EAE) in SJL/J mice; experiment: Relapse and progression in PLP139-151 induced EAE; format: in vivo; conditions: 3 mg/kg p.o. daily, started three days after first clinical symptoms; FIG. 2
Method: Female SJL/J mice were immunized with 50 μg PLP139-151 in CFA, followed by one injection of 200 ng Pertussis toxin, i.p.. Three days after the first clinical symptoms, the mice were randomized to either vehicle or BAF312 and treated daily with 3 mg/kg BAF312 p.o..

[2] = Clinical study in SPMS: cardiac monitoring at treatment initiation; format: in vivo, patients with Secondary Progressive Multiple Sclerosis
Source text: This is a randomized, multicenter, double-blind, placebo-controlled parallel-group study in approximately 1530 patients with SPMS. Patients are randomized (2:1) to receive either BAF312 or placebo.
The Double-blind treatment epoch starts at randomization. Patients are randomly assigned to either siponimod or placebo. Randomized patients begin with a six-day dose titration Patients are monitored during the dose titration period. During the dose titration, all patients are expected to complete a study visit on the first day of dosing and on day 7. Patients have a study visit on Day 28 and then continue on a visit schedule every 3 months. The treatment duration for individual patients is variable (likely ranging from approximately 23 to 42 months) based on when the study-stop criteria are met.
All patients start the treatment with a 5-day dose titration pack (0.25 mg, 0.25 mg, 0.5 mg, 0.75 mg, 1.25 mg) continuing to a 2 mg siponimod/placebo dose.
Sitting heart rate and blood pressure should be measured in triplicate before the first dose of BAF312, then hourly for 6 hours thereafter (by the Independent First Dose Administrator). When obtaining the pre-dose heart rate before the first dose, the patient should be allowed to sit and rest for 5 minutes before taking the sitting heart rate. Triplicate repeat sitting heart rate and blood pressure will then be made at 1-2 minute intervals. The sitting heart rate and blood pressure measurements should be taken as a baseline reading for both heart rate and blood pressure (before the first dose of BAF312). For comparison to the post-dose heart rate values, the lowest pre-dose value of heart rate should be used. Patients should receive the first dose of BAF312 before 12:00 PM (noon) in the outpatient setting. • 1. In house (clinical/office/hospital) cardiac monitoring, of at least 6 hours, on Day 1 (treatment initiation): • Heart rate and blood pressure will be monitored in triplicate every hour for 6 hours. • 12-lead ECG will be done before dosing, then at 3 hours post-dose and 6 hours post dose • Patients will only be discharged if they meet the following discharge criteria: • Heart rate must be at least 50 bpm or maximally 10 bpm lower than the baseline value • Heart rate must not be the lowest value measured during the observation period • Patients must have no symptoms related to decreased heart rate • ECG at 6 hours should not show any new significant treatment-emergent ECG abnormalities, other than sinus bradycardia, not observed at the patient's pre-dose ECG. • 2. If the discharge criteria are not met at the 6-hour time point, monitoring beyond 6 hours will be performed until the discharge criteria are met. • 3. Patients experiencing a clinically relevant treatment-related symptomatic event (e.g. chest pain, dizziness, palpitations, syncope, nausea and vomiting, etc) associated with reduction of the heart rate together with ECG changes at any time during the 6 hour monitoring period should be discontinued from treatment. • 4. Patients experiencing a symptomatic event, (e.g. chest pain, dizziness, palpitations, syncope, nausea and vomiting) not associated with reduction of the heart rate and without ECG changes, which occur at any time during the 6-hour monitoring period may be discharged, provided they meet the discharge criteria, but must return on Day 2 for the second dose and will be re-monitored as on Day 1. • 5. Mobile heart rate monitoring with telemetry, or a device with similar (or better) registration capability, will be used for continuous registration of heart rate and cardiac events, minimally 6 h post-dose, for Expanded Cardiac Monitoring patients during their outpatient phase of the BAF312 titration period. If MCT is not possible, Patient will be required to wear a Holter on Screening, Day 1 and Day 4 for 24 hours and for 6 hours on Day 7. The patients who will wear a Holter will need make the study visits to have the Holter machine attached. • 6. On Day 4: • a. […]

[3] = administration of 10 mg of siponimod; cited from earlier work
[4] = blinded data (siponimod or placebo)
[5] = blinded data (siponimod or placebo), AE data for 775 patients

T2 sequence (Q9H228 whole entry): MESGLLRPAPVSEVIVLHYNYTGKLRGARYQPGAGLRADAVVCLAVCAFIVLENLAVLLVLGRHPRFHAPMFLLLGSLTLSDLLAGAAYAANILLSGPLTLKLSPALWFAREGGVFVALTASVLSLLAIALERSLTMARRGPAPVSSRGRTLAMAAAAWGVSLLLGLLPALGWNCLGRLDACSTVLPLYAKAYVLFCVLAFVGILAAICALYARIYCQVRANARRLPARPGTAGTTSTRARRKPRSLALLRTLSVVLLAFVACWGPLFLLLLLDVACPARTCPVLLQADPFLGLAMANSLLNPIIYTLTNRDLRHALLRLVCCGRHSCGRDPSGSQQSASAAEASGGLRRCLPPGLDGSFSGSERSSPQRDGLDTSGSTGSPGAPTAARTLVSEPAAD
T1 sequence (P21453 whole entry): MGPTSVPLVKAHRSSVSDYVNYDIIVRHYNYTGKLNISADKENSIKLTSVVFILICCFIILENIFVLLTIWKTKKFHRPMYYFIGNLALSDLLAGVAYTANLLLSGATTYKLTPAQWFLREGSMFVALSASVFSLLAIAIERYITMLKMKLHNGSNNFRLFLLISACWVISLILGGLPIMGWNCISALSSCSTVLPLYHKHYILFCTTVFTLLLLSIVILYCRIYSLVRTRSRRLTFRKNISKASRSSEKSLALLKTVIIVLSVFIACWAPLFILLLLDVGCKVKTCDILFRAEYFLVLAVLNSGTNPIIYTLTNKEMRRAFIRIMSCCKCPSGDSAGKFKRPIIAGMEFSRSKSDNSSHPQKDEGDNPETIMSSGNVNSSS
S1P5, sequence (Q9H228 whole entry, species assumed): as the sequence (Q9H228 whole entry) above
S1P1, sequence (P21453 whole entry, species assumed): as the sequence (P21453 whole entry) above

| EC50 (cloned human S1P1) [nM] | EC50 (cloned human S1P5) [nM] | EC50 (S1P1) [nM] | EC50 (S1P5) [nM] | cases of 2.1 or Mobitz II AV blocks or high degree AV blocks [2, 4] | cases of symptomatic 2nd degree AV blocks [2, 4] | Holter: patients with AV block 2nd degree Mobitz I night-time episode <3 sec ([2]; blinded data (siponimod or placebo), Day 1, expanded monitoring group, 651 patients) [patient] | MCT: patients with AV block 2nd degree Mobitz I ([2]; blinded data (siponimod or placebo), on Days 3 and 4, MCT or Holter post-dose, 651 patients) [patients] | Structure (SMILES) | occurrence of relapses (relapse onset) [1] | occurrence of subsequent progression (EAE score and body weight) [1] | 12-lead ECG: cases of 2nd degree AV block ([2]; blinded data (siponimod or placebo 2:1), 5-day titration then 2 mg, post-dose ECG, 691 patients) | symptomatic bradyarrhythmia events [2, 4] | AE AV block 2nd degree [2, 5] | AE bradycardia [2, 5] | AE sinus bradycardia [2, 5] | Cardiac disorders AEs reported [2, 5] | SAE of asymptomatic 2nd degree AV block Mobitz I ([2]; blinded data, patient with pre-existing AV block 1st degree receiving carbamazepine, SAE data for 862 patients) [SAE] | decrease in heart rate [3] |
| --- | --- | --- | --- | --- | --- | --- | --- | --- | --- | --- | --- | --- | --- | --- | --- | --- | --- | --- |
| 2.2 | 1.35 | – | – | – | – | – | – | CCc1cc(/C(C)=N/OCc2ccc(C3CCCCC3)c(I)c2)ccc1CN1CC(C(=O)O)C1 [compound A, (E)-1-(4-(1-(((4-cyclohexyl-3-iodobenzyl)oxy)imino)ethyl)-2-ethylbenzyl)azetidine-3-carboxylic acid] | – | – | – | – | – | – | – | – | – | – |
| 0.9 | 0.79 | 0.4 | 1 | No cases | No cases | 1 | 2 | CCc1cc(/C(C)=N/OCc2ccc(C3CCCCC3)c(C(F)(F)F)c2)ccc1CN1CC(C(=O)O)C1 [siponimod, 1-{4-[1-((E)-4-cyclohexyl-3-trifluoromethyl-benzyloxyimino)-ethyl]-2-ethyl-benzyl}-azetidine-3-carboxylic acid] | strongly inhibited | strongly inhibited | no cases | No symptomatic bradyarrhythmia events | 2 (0.3%) patients (%) | 17 (2.2%) patients (%) | 8 (1.0%) patients (%) | 54 (7%) patients (%) | 1 | approximately 10 beats/min |

Source: patent US20250041266A1, “S1P MODULATOR IMMEDIATE RELEASE DOSAGE REGIMEN” (Novartis AG, priority 2014, published 2025)
